For test [1], the target named is T1, Human P2Y12 receptor (Homo sapiens, UniProt Q9H244).
T1 construct: expressed in transfected cells; host or cells: HEK cells
The experiment in a line: Human P2Y12 receptor cell membrane binding assay with [3H] 2-Mes-ADP. Conditions: 1 nM [3H] 2-Mes-ADP, membranes of HEK cells expressing P2Y12 receptor; read-out: Binding activity (IC50). The method in brief: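 Competition binding used 1 nM [3H]2-MeS-ADP on P2Y12-expressing HEK cell membranes for 1 h at room temperature, followed by filtration and scintillation counting.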

In test [2] the test system is Human platelet aggregation caused by ADP. The experiment in a line: Inhibition of ADP-induced platelet aggregation (Mimic-human PRP). It counts as cell-based. The conditions noted are these: 20 μM ADP, human platelet concentrate diluted with PPP, absorption at 595 nm. In outline: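 Ki came from non-linear sigmoidal fits of inhibition, measured as the 3-min rise in absorbance at 595 nm after 20 μM ADP, relative to 0/20 μM ADP controls. Platelets (3–4×10^8/mL in PPP-diluted human PRP) were exposed to 0.01–30 μM compound for 20 min at room temperature beforehand.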

T1 sequence (Q9H244 whole entry): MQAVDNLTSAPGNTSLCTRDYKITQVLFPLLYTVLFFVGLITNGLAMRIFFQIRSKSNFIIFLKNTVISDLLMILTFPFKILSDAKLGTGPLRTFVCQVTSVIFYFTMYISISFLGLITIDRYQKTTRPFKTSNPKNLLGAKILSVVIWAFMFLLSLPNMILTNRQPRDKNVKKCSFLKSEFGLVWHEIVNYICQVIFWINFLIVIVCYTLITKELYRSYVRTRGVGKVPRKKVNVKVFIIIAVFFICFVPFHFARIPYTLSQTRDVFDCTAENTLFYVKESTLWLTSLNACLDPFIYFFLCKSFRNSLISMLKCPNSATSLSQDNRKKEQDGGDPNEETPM

Regarding `CCCc1cc2c(N3CCn4c(nnc4C(F)(F)F)C3)nc(N3CC[C@H](C(=O)NC)C3)nc2s1` [Example 1-87, (S)-1-[6-Propyl-4-(3-trifluoromethyl-5,6-dihydro-8H-[1,2,4]triazolo[4,3-a]pyrazin-7-yl)-thieno[2,3-d]pyrimidin-2-yl]-pyrrolidine-3-carboxylic acid methylamide], the IC50 in test [1] came out at 0.067 µM. In test [2], the inhibitory constant (Ki) was 0.011 µM.
In the same order, the values of `CCCc1cc2c(N3CCn4c(nnc4C(F)(F)F)C3)nc(COc3ccccc3C(=O)OC)nc2s1` [Example 4-24, 2-[6-Propyl-4-(3-trifluoromethyl-5,6-dihydro-8H-[1,2,4]triazolo[4,3-a]pyrazin-7-yl)thieno[2,3-d]pyrimidin-2-ylmethoxy]benzoic acid methyl ester] are 0.7 µM and 8.1 µM.
In the same order, the values of `CCCc1cc2c(N3CCn4c(nnc4C(F)(F)F)C3)nc(N3CC[C@H](NC(=O)CCO)C3)nc2s1` [Example 1-109, 3-Hydroxy-N-{(S)-1-[6-propyl-4-(3-trifluoromethyl-5,6-dihydro-8H-[1,2,4]triazolo[4,3-a]pyrazin-7-yl)-thieno[2,3-d]pyrimidin-2-yl]-pyrrolidin-3-yl}-propionamide] are 0.08 µM and 0.026 µM.
On to `CCCc1cc2c(N3CCn4c(nnc4C(F)(F)F)C3)nc(N3CCn4cnnc4C3)nc2s1` [Example 1-75, 7-[2-(5,6-Dihydro-8H-[1,2,4]triazolo[4,3-a]pyrazin-7-yl)-6-propyl-thieno[2,3-d]pyrimidin-4-yl]-3-trifluoromethyl-5,6,7,8-tetrahydro-[1,2,4]triazolo[4,3-a]pyrazine], for which, in test [1], the IC50 came to 0.032 µM. Further, the affinity in test [2] corresponds to a Ki of 0.007 µM.
In the same order, the values of `CCCc1cc2c(N3CCn4c(nnc4C(F)(F)F)C3)nc(N3CCOC(=O)C3)nc2s1` [Example 1-35, 4-[6-Propyl-4-(3-trifluoromethyl-5,6-dihydro-8H-[1,2,4]triazolo[4,3-a]pyrazin-7-yl)-thieno[2,3-d]pyrimidin-2-yl]-morpholin-2-one] are 0.135 µM and 0.054 µM.
With `CCCc1cc2c(N3CCn4c(nnc4C(F)(F)F)C3)nc(N3CCC(=NOCc4ccccc4)C3)nc2s1` [Example 1-21, 1-[6-Propyl-4-(3-trifluoromethyl-5,6-dihydro-8H-[1,2,4]triazolo[4,3-a]pyrazin-7-yl)-thieno[2,3-d]pyrimidin-2-yl]-pyrrolidin-3-one O-benzyloxime], the IC50 in test [1] was found to be 0.452 µM. In test [2], this compound yielded a Ki of 0.22 µM.
`CCCc1cc2c(N3CCn4c(nnc4C(F)(F)F)C3)nc(N3CC[C@H](C(=O)NO)C3)nc2s1` [Example 1-89, (S)-1-[6-Propyl-4-(3-trifluoromethyl-5,6-dihydro-8H-[1,2,4]triazolo[4,3-a]pyrazin-7-yl)-thieno[2,3-d]pyrimidin-2-yl]-pyrrolidine-3-carboxylic acid hydroxyamide]: the IC50 in test [1] worked out at 0.055 µM. In test [2], this compound yielded a Ki of 0.012 µM.
Consider `CCCc1cc2c(N3CCn4c(nnc4C(F)(F)F)C3)nc(OCCc3cc(F)cc(F)c3F)nc2s1` [Example 3-21, 7-{6-Propyl-2-[2-(2,3,5-trifluoro-phenyl)-ethoxy]-thieno[2,3-d]pyrimidin-4-yl}-3-trifluoromethyl-5,6,7,8-tetrahydro-[1,2,4]triazolo[4,3-a]pyrazine], for which, in test [1], the IC50 worked out at 0.11 µM. This compound showed a Ki in test [2] of 0.39 µM.
For `CCCc1cc2c(N3CCn4c(nnc4C(F)(F)F)C3)nc(N3CC[C@@H](N)C3)nc2s1` [Example 1-13, (R)-1-[6-Propyl-4-(3-trifluoromethyl-5,6-dihydro-8H-[1,2,4]triazolo[4,3-a]pyrazin-7-yl)-thieno[2,3-d]pyrimidin-2-yl]-pyrrolidin-3-ylamine], in test [1], the IC50 came out at 0.083 µM. Further, in test [2], the Ki was determined as 0.09 µM.
For `CCCc1cc2c(N3CCn4c(nnc4C(F)(F)F)C3)nc(Oc3ccc(C(=O)O)cc3)nc2s1` [Example 3-35, 4-[6-Propyl-4-(3-trifluoromethyl-5,6-dihydro-8H-[1,2,4]triazolo[4,3-a]pyrazin-7-yl)-thieno[2,3-d]pyrimidin-2-yloxy]-benzoic acid] the same measures were 0.099 µM and 1.4 µM.
As to `CCCc1cc2c(N3CCn4c(nnc4C(F)(F)F)C3)nc(N3CC[C@H](NC(=O)CC(F)(F)F)C3)nc2s1` [Example 1-104, 3,3,3-Trifluoro-N-{(S)-1-[6-propyl-4-(3-trifluoromethyl-5,6-dihydro-8H-[1,2,4]triazolo[4,3-a]pyrazin-7-yl)-thieno[2,3-d]pyrimidin-2-yl]-pyrrolidin-3-yl}-propionamide], the IC50 in test [1] turned out to be 0.08 µM. In addition, the Ki in test [2] came out at 0.086 µM.
In the same order, the values of `CCCc1cc2c(N3CCn4c(nnc4C(F)(F)F)C3)nc(N3CCn4ccnc4C3)nc2s1` [Example 1-77, 7-[2-(5,6-Dihydro-8H-imidazo[1,2-a]pyrazin-7-yl)-6-propyl-thieno[2,3-d]pyrimidin-4-yl]-3-trifluoromethyl-5,6,7,8-tetrahydro-[1,2,4]triazolo[4,3-a]pyrazine] are 0.047 µM and 0.06 µM.
In the case of `CCCc1cc2c(N3CCn4c(nnc4C(F)(F)F)C3)nc(N3CCC(O)CC3)nc2s1` [Example 1-26, 1-[6-Propyl-4-(3-trifluoromethyl-5,6-dihydro-8H-[1,2,4]triazolo[4,3-a]pyrazin-7-yl)-thieno[2,3-d]pyrimidin-2-yl]-piperidin-4-ol], the IC50 in test [1] was found to be 0.06 µM. In test [2], this compound had a Ki of 1.2 µM.
Take `CCCc1cc2c(N3CCn4c(nnc4C(F)(F)F)C3)nc(OCc3cccnc3)nc2s1` [Example 3-24, 7-[6-Propyl-2-(pyridin-3-ylmethoxy)-thieno[2,3-d]pyrimidin-4-yl]-3-trifluoromethyl-5,6,7,8-tetrahydro-[1,2,4]triazolo[4,3-a]pyrazine]: in test [1], the IC50 amounted to 0.16 µM. The compound further displayed a Ki in test [2] of 1.48 µM.
In the case of `CCCc1cc2c(N3CCn4c(nnc4C(F)(F)F)C3)nc(N3CCN(C4CCCC4)CC3)nc2s1` [Example 1-40, 7-[2-(4-Cyclopentyl-piperazin-1-yl)-6-propyl-thieno[2,3-d]pyrimidin-4-yl]-3-trifluoromethyl-5,6,7,8-tetrahydro-[1,2,4]triazolo[4,3-a]pyrazine], in test [1], the IC50 was 0.2 µM. The compound also showed a Ki in test [2] of 0.175 µM.
In the case of `CCCc1cc2c(N3CCn4c(nnc4C(F)(F)F)C3)nc(N3CCC(N)CC3)nc2s1` [Example 1-69, 1-[6-Propyl-4-(3-trifluoromethyl-5,6-dihydro-8H-[1,2,4]triazolo[4,3-a]pyrazin-7-yl)-thieno[2,3-d]pyrimidin-2-yl]-piperidin-4-ylamine], the IC50 in test [1] turned out to be 0.082 µM. Besides, the Ki in test [2] is 0.3 µM.
For the compound `CCCc1cc2c(N3CCn4c(C)nnc4C3)nc(OCC(O)CO)nc2s1` (stereo not drawn) [Example 6-15, 3-[4-(3-Methyl-5,6-dihydro-8H-[1,2,4]triazolo[4,3-a]pyrazin-7-yl)-6-propyl-thieno[2,3-d]pyrimidin-2-yloxy]-propane-1,2-diol], the IC50 in test [1] came out at 0.4 µM. The compound further returned a Ki in test [2] of 0.19 µM.
As to `CCCc1cc2c(N3CCn4c(nnc4C(F)(F)F)C3)nc(OCCNS(=O)(=O)C3CC3)nc2s1` [Example 3-68, Cyclopropanesulfonic Acid {2-[6-propyl-4-(3-trifluoromethyl-5,6-dihydro-8H-[1,2,4]triazolo[4,3-a]pyrazin-7-yl)-thieno[2,3-d]pyrimidin-2-yloxy]-ethyl}-amide], the IC50 in test [1] worked out at 0.14 µM. The same compound displayed a Ki in test [2] of 0.12 µM.
In the same order, the values of `CCCc1cc2c(N3CCn4c(nnc4C(F)(F)F)C3)nc(CC(=O)OCC)nc2s1` [Example 4-53, [6-Propyl-4-(3-trifluoromethyl-5,6-dihydro-8H-[1,2,4]triazolo[4,3-a]pyrazin-7-yl)thieno[2,3-d]pyrimidin-2-yl]acetic acid ethyl ester] are 0.3 µM and 5.25 µM.
For `CCCc1cc2c(N3CCn4c(nnc4C(F)(F)F)C3)nc(OCCN)nc2s1` [Example 3-58, 2-[6-Propyl-4-(3-trifluoromethyl-5,6-dihydro-8H-[1,2,4]triazolo[4,3-a]pyrazin-7-yl)-thieno[2,3-d]pyrimidin-2-yloxy]-ethylamine] the same measures were 0.4 µM and 0.021 µM.
In the same order, the values of `CCCc1cc2c(N3CCn4c(nnc4C(F)(F)F)C3)nc(N3CC[C@H](C(=O)NCCN)C3)nc2s1` [Example 1-91, (S)-1-[6-Propyl-4-(3-trifluoromethyl-5,6-dihydro-8H-[1,2,4]triazolo[4,3-a]pyrazin-7-yl)-thieno[2,3-d]pyrimidin-2-yl]-pyrrolidine-3-carboxylic acid (2-amino-ethyl)-amide] are 0.19 µM and 0.14 µM.
For the compound `CCCc1cc2c(N3CCn4c(nnc4C(F)(F)F)C3)nc(N3CC[C@H](O)C3)nc2s1` [Example 1-16, (S)-1-[6-Propyl-4-(3-trifluoromethyl-5,6-dihydro-8H-[1,2,4]triazolo[4,3-a]pyrazin-7-yl)-thieno[2,3-d]pyrimidin-2-yl]-pyrrolidin-3-ol], in test [1], the IC50 is 0.036 µM. Moreover, the affinity in test [2], expressed as Ki, was 0.045 µM.
With `CCCCOc1nc(N2CCn3c(nnc3C(F)(F)F)C2)c2cc(CCC)sc2n1` [Example 3-17, 7-(2-Butoxy-6-propyl-thieno[2,3-d]pyrimidin-4-yl)-3-trifluoromethyl-5,6,7,8-tetrahydro-[1,2,4]triazolo[4,3-a]pyrazine], the IC50 in test [1] is 0.11 µM. In test [2], this compound registered an inhibition constant Ki of 3.2 µM.
Regarding `CCCc1cc2c(N3CCn4c(nnc4C(F)(F)F)C3)nc(C(=O)NCCC(=O)O)nc2s1` [Example 4-7, 3-{[6-Propyl-4-(3-trifluoromethyl-5,6-dihydro-8H-[1,2,4]triazolo[4,3-a]pyrazin-7-yl)thieno[2,3-d]pyrimidine-2-carbonyl]amino}propionic acid], the IC50 in test [1] was 0.62 µM. The compound also returned a Ki in test [2] of 0.32 µM.

For orientation: IC50 means the midpoint of a concentration-inhibition curve. A word on the Ki: it is the dissociation constant of the complex between target and ligand, obtained from inhibition or displacement.

The record behind these values is US20110166121A1 (LG LIFE SCIENCES LTD., priority 2008, published 2011).
